In this data set the test system is CCRIS mutagenicity, Ames/micronucleus/aberration tests. The data set is described as follows: CCRIS mutagenicity studies.
[1] abbreviates: Test System: AMES SALMONELLA TYPHIMURIUM, Strain/Indicator: TA98, Metabolic Activation: NONE, Method: PREINCUBATION
[2] abbreviates: Test System: AMES SALMONELLA TYPHIMURIUM, Strain/Indicator: TA100, Metabolic Activation: NONE, Method: PREINCUBATION

The source made the active and inactive calls. How the calls were made is not given here.

In the case of `N[C@@H](CSCc1ccccc1)C(=O)O`, the mutagenic call by setting is: under setting [1], “inactive; negative”; (Test System: AMES SALMONELLA TYPHIMURIUM, Strain/Indicator: TA98, Metabolic Activation: RAT, LIVER OR KIDNEY, MICROSOMES, Method: PREINCUBATION) “inactive; negative”; under setting [2], “inactive; negative”; (Test System: AMES SALMONELLA TYPHIMURIUM, Strain/Indicator: TA100, Metabolic Activation: RAT, LIVER OR KIDNEY, MICROSOMES, Method: PREINCUBATION) “inactive; negative”; (Test System: AMES SALMONELLA TYPHIMURIUM, Strain/Indicator: TA102, Metabolic Activation: NONE, Method: PREINCUBATION) “inactive; negative”; (Test System: AMES SALMONELLA TYPHIMURIUM, Strain/Indicator: TA102, Metabolic Activation: RAT, LIVER OR KIDNEY, MICROSOMES, Method: PREINCUBATION) “inactive; negative”. The mutagenic call runs as follows: (Test System: AMES SALMONELLA TYPHIMURIUM, Strain/Indicator: TA2638, Metabolic Activation: NONE, Method: PREINCUBATION) “inactive; negative”; (Test System: AMES SALMONELLA TYPHIMURIUM, Strain/Indicator: TA2638, Metabolic Activation: RAT, LIVER OR KIDNEY, MICROSOMES, Method: PREINCUBATION) “inactive; negative”.

For the compound `Nc1ccccc1C(=O)O`, the mutagenic call by setting is: (Test System: AMES SALMONELLA TYPHIMURIUM, Strain/Indicator: TA98, Metabolic Activation: HAMSTER, LIVER, S-9, AROCLOR 1254 (10%), Method: PREINCUBATION) “inactive; negative”; under setting [1], “inactive; negative”; (Test System: AMES SALMONELLA TYPHIMURIUM, Strain/Indicator: TA98, Metabolic Activation: RAT, LIVER, S-9, AROCLOR 1254 (10%), Method: PREINCUBATION) “inactive; negative”; (Test System: AMES SALMONELLA TYPHIMURIUM, Strain/Indicator: TA100, Metabolic Activation: HAMSTER, LIVER, S-9, AROCLOR 1254 (10%), Method: PREINCUBATION) “inactive; negative”; under setting [2], “inactive; negative”; (Test System: AMES SALMONELLA TYPHIMURIUM, Strain/Indicator: TA100, Metabolic Activation: RAT, LIVER, S-9, AROCLOR 1254 (10%), Method: PREINCUBATION) “inactive; negative”. In addition, the mutagenic call is, setting by setting: (Test System: AMES SALMONELLA TYPHIMURIUM, Strain/Indicator: TA1535, Metabolic Activation: HAMSTER, LIVER, S-9, AROCLOR 1254 (10%), Method: PREINCUBATION) “inactive; negative”; (Test System: AMES SALMONELLA TYPHIMURIUM, Strain/Indicator: TA1535, Metabolic Activation: NONE, Method: PREINCUBATION) “inactive; negative”; (Test System: AMES SALMONELLA TYPHIMURIUM, Strain/Indicator: TA1535, Metabolic Activation: RAT, LIVER, S-9, AROCLOR 1254 (10%), Method: PREINCUBATION) “inactive; negative”; (Test System: AMES SALMONELLA TYPHIMURIUM, Strain/Indicator: TA1537, Metabolic Activation: HAMSTER, LIVER, S-9, AROCLOR 1254 (10%), Method: PREINCUBATION) “inactive; negative”; (Test System: AMES SALMONELLA TYPHIMURIUM, Strain/Indicator: TA1537, Metabolic Activation: NONE, Method: PREINCUBATION) “inactive; negative”; (Test System: AMES SALMONELLA TYPHIMURIUM, Strain/Indicator: TA1537, Metabolic Activation: RAT, LIVER, S-9, AROCLOR 1254 (10%), Method: PREINCUBATION) “inactive; negative”. In addition, the mutagenic call is, setting by setting: (Test System: CHINESE HAMSTER OVARY, Strain/Indicator: CHO-K1-BH4 (HGPRT)/6-THIOGUANINE, Metabolic Activation: NONE) “inactive; negative”; (Test System: CHINESE HAMSTER OVARY, Strain/Indicator: CHO-K1-BH4 (HGPRT)/6-THIOGUANINE, Metabolic Activation: S-9) “inactive; negative”; (Test System: MOUSE LYMPHOMA, Strain/Indicator: L5178Y (TK+/TK-), Metabolic Activation: RAT, LIVER, S-9, AROCLOR 1254, Method: SUSPENSION/PLATE) “active; positive”; (Test System: Mouse lymphoma, Strain/Indicator: L5178Y (tk+/tk-), Metabolic Activation: None, Method: Suspension/plate) “inactive; negative”; (Test System: Mouse lymphoma, Strain/Indicator: L5178Y (tk+/tk-), Metabolic Activation: Rat, Liver, S-9, Aroclor 1254, Method: Suspension/plate) “active; positive”.

The record behind these values is PubChem BioAssay AID1259407 (Chemical Carcinogenesis Research Information System (CCRIS), 2018).
